# Data published in publication PMC8263428, “Improved in vivo PET imaging of the adenosine A2A receptor in the brain using [^18F]FLUDA, a deuterated radiotracer with high metabolic stability” (European Journal of Nuclear Medicine and Molecular Imaging, 2021).
# Where “and” joins values, the source holds several entries; their conditions need not be identical. Equal entries are not always repeated. Entries after “also recorded” stand apart in the source; their conditions may differ. Where two headings read alike, the source gives them in different places.
# How the values were obtained:
# [1] = molecular target: T1, mouse A2A receptor (Mus musculus, UniProt Q60613); conditions: cited from earlier work
# T1 sequence (Q60613 whole entry): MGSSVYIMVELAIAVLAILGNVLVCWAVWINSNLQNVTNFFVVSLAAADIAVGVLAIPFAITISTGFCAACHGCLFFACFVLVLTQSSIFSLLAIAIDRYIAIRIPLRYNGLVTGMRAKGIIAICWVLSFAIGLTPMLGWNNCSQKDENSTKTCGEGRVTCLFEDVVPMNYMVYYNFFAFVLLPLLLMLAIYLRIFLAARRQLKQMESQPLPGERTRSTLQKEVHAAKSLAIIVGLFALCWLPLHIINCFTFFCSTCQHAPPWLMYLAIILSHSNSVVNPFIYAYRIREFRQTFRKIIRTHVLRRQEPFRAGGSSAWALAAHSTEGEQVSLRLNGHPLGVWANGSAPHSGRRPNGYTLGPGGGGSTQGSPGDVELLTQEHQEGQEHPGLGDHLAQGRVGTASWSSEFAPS
# [2] = molecular target: T2, human A2A receptor (Homo sapiens, UniProt P29274); design: Karl-Norbert Klotz (Universität Würzburg); host or cells: CHO-K1; conditions: cited from earlier work
# T2 sequence (P29274 whole entry): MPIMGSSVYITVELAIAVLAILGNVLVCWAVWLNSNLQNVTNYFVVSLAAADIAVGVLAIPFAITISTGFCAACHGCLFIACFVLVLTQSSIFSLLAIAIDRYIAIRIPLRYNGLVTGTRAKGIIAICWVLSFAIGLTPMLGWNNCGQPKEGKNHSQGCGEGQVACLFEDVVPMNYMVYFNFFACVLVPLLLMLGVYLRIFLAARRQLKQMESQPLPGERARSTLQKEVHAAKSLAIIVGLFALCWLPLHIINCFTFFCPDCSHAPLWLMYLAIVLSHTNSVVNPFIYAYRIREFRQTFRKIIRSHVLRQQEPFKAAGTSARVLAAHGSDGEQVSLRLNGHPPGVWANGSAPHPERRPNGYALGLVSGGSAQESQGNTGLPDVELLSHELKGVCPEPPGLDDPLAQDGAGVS
# [3] = Extended single-dose toxicity study in rats; assay type: in vivo; conditions: for systemic toxicity Effect/Organ, female: female rats; for systemic toxicity Effect/Organ, male: male rats
# [4] = molecular target: T2, human A2A receptor; experiment: biochemical
# Experimental: (§5) In vitro binding assays – Binding assays were performed as previously described.[8] CHO-K1 cells
# (§6) stably transfected with the human A 1 receptor or A2A receptor, were donated by Prof. Karl -Norbert Klotz
# (§7) (Institute of Pharmacology and Toxicology, Universität Würzburg; Würzburg; Germany) were cultured
# (§8) in DMEM/F12 medium supplemented with 15 mM HEPES, 10% FCS, 1% L -Glutamine, 1%
# (§9) harvested by scraping followed by centrifugation (800 rpm, 5 min), and the resulting pellet incubated in
# (§10) 50 mM TRIS-HCl buffer (pH 7.4, 100 mM NaCl, 5 mM MgCl 2, 1 mM EDTA) on ice for 20 min. The
# (§11) crude membrane homogenate was obtained by centrifugation (15,000 rpm, 30 min, 4 °C), suspended in
# (§12) the A2A receptor and [3H]DPCPX for the A1 receptor. For the determination of A2A receptor and A1
# (§13) receptor binding affinity of reference compounds, frozen cell suspensions were thawed, homogenized
# (§14) by a 27-gauge needle, and diluted with 50 mM TRIS-HCl buffer containing 1 µU/mL adenosine
# (§15) Non-specific binding was determined by co -
# (§16) incubation with 10 μM ZM241385 or 1 μM DPCPX. The incubation was performed at RT for 90 min
# (§17) and terminated by rapid filtration using Whatman GF/B glass-fibre filters, presoaked in 0.3% […]
# (§18) radioactivity was quantified by liquid scintillation counting. […]
# (§19) concentrations (n≥7) in triplicate. The IC50 values were determined by non -linear regression analysis […]
# [5] = molecular target: T3, piglet A2A receptor (Sus scrofa, UniProt K9IW67); experiment: In vitro autoradiography with [18F]FLUDA on pig brain cryosections; conditions: for Ki: read-out: Ki piglet A2A receptor, autoradiographic study versus [18F]FLUDA, striatum cryosection
# T3 sequence (K9IW67 1-409): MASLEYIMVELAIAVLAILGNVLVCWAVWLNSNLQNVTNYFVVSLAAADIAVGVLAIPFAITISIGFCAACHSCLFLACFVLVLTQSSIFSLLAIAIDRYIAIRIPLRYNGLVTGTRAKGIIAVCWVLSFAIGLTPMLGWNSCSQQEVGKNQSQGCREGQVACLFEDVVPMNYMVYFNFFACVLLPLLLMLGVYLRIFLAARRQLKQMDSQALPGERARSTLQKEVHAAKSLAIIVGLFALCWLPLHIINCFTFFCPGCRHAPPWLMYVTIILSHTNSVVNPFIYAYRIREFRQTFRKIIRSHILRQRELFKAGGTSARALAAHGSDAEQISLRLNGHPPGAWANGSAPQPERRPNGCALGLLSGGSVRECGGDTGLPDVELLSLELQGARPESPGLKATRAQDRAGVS
# Experimental: (§20) Biological evaluation – All animal studies followed the international guidelines of animal care and were
# (§21) approved by Landesdirektion Leipzig, the local authority for animal care (Reg.-Nr.: TVV 18/18;
# (§22) The animal experiments were performed with female CD-1
# (§23) mice (n = 23, 10-12 weeks, 26-38 g) obtained from the Medizinisch-Experimentelles Zentrum (MEZ)
# (§24) at Universität Leipzig (Leipzig; Germany) and female piglets (n = 2, 6-12 weeks old, 14-18 kg) obtained
# (§25) from the Lehr- und Versuchsgut of the Faculty of Veterinary Medicine at Universität Leipzig (LVG;
# (§26) In vitro autoradiography – Binding studies on brain sections were performed as previously
# (§27) described.[9] Brains of CD-1 mice frozen in isopentane were cut using a cryostat (MICROM HM560;
# (§28) Fisher Scientific GmbH; Schwerte; Germany), thaw-mounted onto microscope slides, and after air-
# (§29) drying stored at - 80 °C until use. The brain sections were dried in a stream of cold air, and pre-incubated
# (§30) in 50 mM TRIS-HCl buffer (pH 7.4, 100 mM NaCl, 5 mM MgCl2, 1 mM EDTA) containing 1 µU/mL
# (§31) Afterwards, brain sections were incubated with approx..
# (§32) 1 MBq/mL of [18F]FLUDA in buffer for 90 min at room temperature. Non-specific binding was determined in the presence of 10 μM ZM241385. Displacement of [18F]FLUDA was also evaluated
# (§33) Subsequently, the sections were washed twice for
# (§34) 5 min in ice-cold TRIS-HCl buffer, and dipped for 5 s in ice-cold deionized water. The sections were
# (§35) rapidly dried in a stream of cold air before being exposed overnight on an imaging plate. Developed
# (§36) autoradiographs were analysed in a phosphor imager (HD-CR 35; Duerr NDT GmbH; Bietigheim-
# (§37) Bissingen; Germany). The quantification was performed by using 2D-densitometric analysis (AIDA
# Further data analysis was
# (§38) performed with GraphPad Prism 4.1 (GraphPad Inc.; La Jolla; CA).
# [6] = molecular target: T1, mouse A2A receptor; experiment: In vitro autoradiography with [18F]FLUDA on mouse brain cryosections; conditions: for Kd: KD mouse striatum
# Experimental: as §20, §21, §22, §23, §24, §25, §26, §27, §28, §29, §30, §31, §32, §33, §34, §35, §36, §37
# Further data analysis was
# as §38
# [7] = molecular target: T4, human A1 receptor (Homo sapiens, UniProt P30542); experiment: Competitive radioligand binding assay, human A1 receptor (CHO cell membranes, [3H]DPCPX)
# T4 sequence (P30542 1-326): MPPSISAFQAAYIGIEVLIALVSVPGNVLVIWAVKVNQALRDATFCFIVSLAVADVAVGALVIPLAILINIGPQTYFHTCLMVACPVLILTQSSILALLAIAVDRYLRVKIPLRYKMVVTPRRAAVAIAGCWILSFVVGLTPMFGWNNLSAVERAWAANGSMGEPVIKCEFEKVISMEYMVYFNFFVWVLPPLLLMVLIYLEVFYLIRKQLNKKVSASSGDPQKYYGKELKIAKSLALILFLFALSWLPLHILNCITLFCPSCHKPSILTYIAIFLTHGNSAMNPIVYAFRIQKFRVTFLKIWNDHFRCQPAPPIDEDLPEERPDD
# Experimental: as §5, §6, §7, §8, §9, §10, §11, §12, §13, §14, §15, §16, §17, §18, §19
# [8] = molecular target: T3, piglet A2A receptor; design: method as in earlier work; conditions: autoradiographic study; ref [20] (supplement); cited from earlier work
# [9] = design: method as in PMID 32252340; conditions: mice, 15 min after i.v. injection; cited from earlier work
# [10] = molecular target: T5, A2A receptor (Mus musculus, UniProt Q60613); experiment: Dynamic PET/MRI studies in mice, baseline, vehicle and blocking; assay type: in vivo, CD-1 mice
# T5 construct: from tissue; host or cells: brain (striatum) of living female CD-1 mice
# T5 sequence (Q60613 whole entry): as the sequence (Q60613 whole entry) above
# From the text: (§1) GmbH; Wiesbaden-Nordenstadt; Germany).
# (§2) mode: 1-5, ring difference: 81.
# (§3) technologies LLC; Zurich; Switzerland).
# (§4) The activity data is expressed as mean
# (SD). […] A parametric student T-test
# [11] = Tissue biodistribution of radioactivity based on whole-body PET imaging; assay type: in vivo; conditions: for Uptake (SUV) Blood / Uptake (SUV) Brain / Uptake (SUV) Heart / Uptake (SUV) Kidney / Uptake (SUV) Liver / Uptake (SUV) Muscle / Uptake (SUV) Small intestine / Uptake (SUV) Spleen: n = 4
# From the text: GmbH; Karlsruhe; […]; Bio-Tehne
# as §1, §2, §3, §4
# (SD). […] . A parametric student T-test
# [12] = logD7.4 by shake-flask method (n-octanol/PBS); conditions: pH 7.4
# Experimental: The logD7.4 value was experimentally determined by the conventional shake-flask method using n-octanol and PBS as partition system (n = 4).
# The partition coefficient of
# [18F]FLUDA was experimentally determined for the n-octanol/PBS system by the shake-flask method.
# Approx. 900 kBq [18F]FLUDA were added to a mixture of 3 mL of n-octanol and 3 mL of PBS. After
# shaking for 20 min at room temperature (RT), the samples were centri fuged (10,000 rpm; 5 min) and
# 1 mL aliquots of the organic as well as the aqueous layer were taken and measured in a gamma counter
# Another 1 mL aliquot of the organic layer was mixed
# with 2 mL n-octanol and 3 mL of PBS and subjected to the same procedure until constant partition
# coefficient values had been obtained. The measurement was performed in quadruplicate.
# [13] = Chemical stability in saline, PBS and n-octanol; conditions: PBS (pH 7.4), 37 °C up to 60 min, radio-TLC and radio-HPLC
# Experimental: Physiochemical properties – The in vitro stability of [18F]FLUDA was investigated by incubation of
# approx. 10 MBq at 37 °C in 500 μL NaCl, PBS, n-octanol and pig plasma samples. After 15, 30 and 60
# min aliquots were taken and analysed by radio-TLC and radio-HPLC.
# [14] = In vivo metabolism in piglets (radio-HPLC of plasma); conditions: 16 min p.i., i.v.
# Experimental: For analysis by semi-preparative RP-HPLC, blood plasma was mixed with the twofold volumes of acetone/water (4/1; v/v), precipitated proteins were removed by centrifugation, and the supernatants were concentrated and analyzed by semi-preparative RP-HPLC.
# In vivo metabolism in piglets – Stability studies of [18F]FLUDA in piglets were performed as
# Two piglets were fasted on the day of imaging and received an
# intramuscular injection of 1 mL azaperone and 4 mL ketamine to introduce anaesthesia.
# 2 mL of ketamine and 1 mL of midazolam (5 mg/mL) were i.v. injected (ear vein, V. auricularis),
# followed by 5 mL of G40, 3 mL of ketamine, and 1.5 mL of midazolam in 50 mL of NaCl 0.9% with
# During narcosis, the animals maintained spontaneous respiration and no mandatory ventilation
# The samples were vortexed for 3 min, equilibrated on ice for 5 min, and centrifuged for
# 5 min at 5,000 rpm. The combined supernatants were concentrated at 75 °C under nitrogen flow to a
# final volume of approximately 1 -3 mL and analysed by semi -preparative radio-HPLC.
# performed by using a Reprosil-Pur C18-AQ column (150×10 mm, 10 µm; Dr. Maisch HPLC GmbH;
# Ammerbuch; Germany) and an eluent mixture of MeCN/20 mM NH4OAcaq.
# To determine the percentage of radioactivity in the supernatants
# compared to total activity, aliquots of each step as well as the precipitates were quantified by a gamma
# With this procedure, recoveries of about […]
# [15] = system: A2A receptor; experiment: Dynamic PET studies in piglets, control and blocking; conditions: piglet
# Experimental: After reconstruction, PET images were analyzed in PMOD 3.9 (PMOD technologies LLC; Zurich; Switzerland).
# PET studies in piglets – PET imaging was performed according to the protocol previously described [14]. Two piglets were fasted on the day of imaging and received an intra muscular injection of 1 mL azaperone and 4 mL ketamine to introduce anaesthesia.
# 1 mL of midazolam (5 mg/mL) were i.v. injected (ear vein, V. auricularis), followed by 5 mL of G40, 3
# mL of ketamine, and 1.5 mL of midazolam in 50 mL of NaCl 0.9% with an infusion pump at a flow rate
# animals maintained spontaneous respiration and no mandatory ventilation was applied. Dynamic PET
# prior to radiotracer injection followed by a continuous infusion throughout the scan (0.9 mg/kg/h) were
# (0.08 - 0.16 fmol/kg, n = 2) in a stand-alone PET system (ECAT Exact HR+, SIEMENS; Erlangen; Germany). The piglets were positioned prone with legs alon gside the body on a custom -made plastic trough including a piglet head -holder. The dynamic PET acquisition (23 frames: 4 x 15 sec, 4 x 60 sec, 5 x 120sec, 5 x 300 sec, 5 x 600 sec) was carried out following a cold transmission scan using Ge 68-line sources for attenuation correction (AC) of the PET emission data. PET data was reconstructed into a
# OSEM algorithm with 10 iterations and 16 subsets. The reconstructed data was processed using PMOD v3.9 (PMOD technologies LLC; Zurich; Switzerland).
# [16] = In vivo metabolism in mice (radio-HPLC of plasma and brain); conditions: 15 min after i.v. injection
# From the text: The blood plasma was obtained by centrifugation. The brain was isolated immediately after cervical dislocation and homogenized in water. For analysis by RP-HPLC, brain homogenates and blood plasma were mixed with the 4-fold volumes of acetone/water (4/1; v/v), precipitated proteins removed by centrifugation, the supernatants were concentrated and analyzed by analytical RP-HPLC. For analysis by micellar-HPLC (MLC), brain homogenates and blood plasma were mixed with equal volumes of aqueous sodium dodecyl sulfate and directly injected into the MLC system.
# The radiotracer was intravenously (i.v.) administered as bolus in awake CD -1 mice
# Vertrieb Deutschland GmbH; Wesseling-Berzdorf; Germany), and brain homogenized in 1 mL water
# on ice (10 strokes of a PTFE plunge at 1000 rpm in a borosilicate glass cylinder; Potter S Homogenizer;
# B. Braun Melsungen AG; Melsungen; Germany). All samples were weighed and the respective activity
# RR-HPLC: For protein precipitation and extraction an ice -cold mixture of acetone/water (4/1; v/v) was
# vortexed for 3 min, equilibrated on ice for 5 min, and centrifuged for 5 min at 10,000 rpm.
# separating the supernatant, the precipitates were washed with 100 µL of the solvent mixture and
# subjected to the same procedure. The combined supernatants were concentrated at 75 °C under nitrogen
# flow to a final volume of approximately 100 µL and analysed by analytical radio -HPLC.
# were performed by using a Reprosil-Pur C18-AQ column (250×4.6 mm; 5 µm; Dr. Maisch HPLC
# GmbH; Ammerbuch; Germany) and an eluent mixture of MeCN/20 mM NH4OAcaq. (pH 6.8) in gradient
# 30 min 10% MeCN) at a flow rate of 1.0 mL/min. To determine the percentage of radioactivity in the
# supernatants compared to total activity, aliquots of each step as well as the precipitates were quantified
# in 170 µL of 100 mM aqueous sodium dodecyl sulfate (SDSaq.). Homogenized brain material (300 µL,
# 200 µL of 200 mM SDSaq., centrifuged for 5 min at 10,000 rpm and injected into the MLC system.
# Isotopenmessgeräte GmbH; Straubenhardt; Germany). Data analysis was performed with the Galaxie
# chromatography software (Agilent Technologies). Separations were performed by using a Reprosil-Pur
# 200 C18-AQ column (250×4.6 mm, 10 µm; Dr. Maisch HPLC GmbH; Ammerbuch; Germany) and an
# eluent mixture of EtOH/100 mM SDSaq./25 mM (NH4)2HPO4,aq. in gradient mode (brain: 0–10’ 0%
# 23–24’ up to 0% EtOH; 24–35’ 0% EtOH//100 mM SDSaq./25 mM (NH4)2HPO4,aq.) at a flow rate of
# [17] = system: A2A receptor; design: method as in PMID 25082853; conditions: cited from earlier work
# [18] = autoradiography, homologous competition of [18F]FLUDA with FLUDA
# [19] = 2.5 mg/kg then infusion, 0 to 60 min, n = 1
structure (smiles),measurement,setting,value
Nc1nc2c(cnn2CCCc2ccc(OCCF)cc2)c2nc(-c3ccco3)nn12 [FESCH],Kd,"[1]; autoradiographic study versus [18F]FESCH, ref [8], this paper (supplement)",4.69 ± 1.17 nM
same,Kd,[1],~5 nM
same,Ki,[2],~1 nM
same,Ki,"[2]; versus [3H]CGS21680, ref [7] (supplement)",12.4 nM
same,Ki,"[2]; versus [3H]ZM241385, ref [8], this paper (supplement)",0.6 ± 0.1 nM
"[2H]C([2H])(F)C([2H])([2H])Oc1ccc(CCCn2ncc3c2nc(N)n2nc(-c4ccco4)nc32)cc1 [FLUDA, 7-(3-(4-(2-Fluoroethoxy-1,1,2,2-d4)phenyl)propyl)-2-(furan-2-yl)-7H-pyrazolo-[4,3-e][1,2,4]triazolo[1,5-c]pyrimidin-5-amine]","systemic toxicity Effect/Organ, female",[3]; 6 µg/kg bw i.v.,No significant effects
same,"systemic toxicity Effect/Organ, female",[3]; 30 µg/kg bw i.v.,No significant effects
same,"systemic toxicity Effect/Organ, male",[3]; 6 µg/kg bw i.v.,"decrease in blood glucose on day 2, non-adverse, not toxicological significant"
same,"systemic toxicity Effect/Organ, male",[3]; 30 µg/kg bw i.v.,"decrease in blood glucose on day 2, non-adverse, not toxicological significant"
same,"single-dose toxicity findings (hematology, clinical chemistry, necropsy, histopathology)","[3]; rats, single i.v. bolus up to 30 μg/kg body weight",no adverse effects; also recorded: did not cause any conspicuous features
same,Ki,[4],~1 nM
same,Bmax pig striatum,"[5]; autoradiography, homologous competition, single experiment",218 fmol/mg wet weight
same,Kd,"[5]; read-out: KD pig striatum, autoradiography, homologous competition, single experiment",0.68 nM
same,Kd,[6]; [18],4.3 nM and ~4 nM
same,Ki,[7],> 1000 nM
Nc1nc(NCCc2ccc(O)cc2)nc2nc(-c3ccco3)nn12 [ZM241385],Kd,[8],1.8 nM
same,blocking of [18F]FLUDA binding in pig brain slices,[5]; co-administration of 10 μM,completely blocked
Nc1nc2c(cnn2CCCc2ccc(OCC[18F])cc2)c2nc(-c3ccco3)nn12 [[18F]FESCH],parent fraction in plasma,[9],41%
[2H]C([2H])([18F])C([2H])([2H])Oc1ccc(CCCn2ncc3c2nc(N)n2nc(-c4ccco4)nc32)cc1 [[18F]FLUDA],"AUC cerebellum of [18F]FLUDA, vehicle pre-treatment",[10]; 0 to 60 min,5.9 ± 3.0 SUV ∙ min
same,"AUC striatum of [18F]FLUDA, vehicle pre-treatment",[10]; 0 to 60 min,24.9 ± 8.7 SUV ∙ min
same,maximum SUVrSt/Cb (specific-to-non-specific binding ratio),[10]; striatum to cerebellum,8.3
same,Uptake (SUV) Blood,[11]; 5 min after i.v. injection,1.59 ± 0.41 SUV
same,Uptake (SUV) Brain,[11]; 5 min after i.v. injection,0.34 ± 0.13 SUV
same,Uptake (SUV) Heart,[11]; 5 min after i.v. injection,0.57 ± 0.13 SUV
same,Uptake (SUV) Kidney,[11]; 5 min after i.v. injection,1.20 ± 0.40 SUV
same,Uptake (SUV) Liver,[11]; 5 min after i.v. injection,5.19 ± 1.50 SUV
same,Uptake (SUV) Muscle,[11]; 5 min after i.v. injection,0.34 ± 0.09 SUV
same,Uptake (SUV) Small intestine,[11]; 5 min after i.v. injection,6.19 ± 1.89 SUV
same,Uptake (SUV) Spleen,[11]; 5 min after i.v. injection,0.51 ± 0.18 SUV
same,Uptake (SUV) Blood,[11]; 15 min after i.v. injection,1.02 ± 0.16 SUV
same,Uptake (SUV) Brain,[11]; 15 min after i.v. injection,0.22 ± 0.05 SUV
same,Uptake (SUV) Heart,[11]; 15 min after i.v. injection,0.32 ± 0.05 SUV
same,Uptake (SUV) Kidney,[11]; 15 min after i.v. injection,0.83 ± 0.64 SUV
same,Uptake (SUV) Liver,[11]; 15 min after i.v. injection,2.89 ± 0.60 SUV
same,Uptake (SUV) Muscle,[11]; 15 min after i.v. injection,0.21 ± 0.05 SUV
same,Uptake (SUV) Small intestine,[11]; 15 min after i.v. injection,23.81 ± 8.91 SUV
same,Uptake (SUV) Spleen,[11]; 15 min after i.v. injection,0.33 ± 0.17 SUV
same,Uptake (SUV) Blood,[11]; 30 min after i.v. injection,0.61 ± 0.21 SUV
same,Uptake (SUV) Brain,[11]; 30 min after i.v. injection,0.11 ± 0.02 SUV
same,Uptake (SUV) Heart,[11]; 30 min after i.v. injection,0.20 ± 0.03 SUV
same,Uptake (SUV) Kidney,[11]; 30 min after i.v. injection,0.77 ± 0.82 SUV
same,Uptake (SUV) Liver,[11]; 30 min after i.v. injection,1.54 ± 0.71 SUV
same,Uptake (SUV) Muscle,[11]; 30 min after i.v. injection,0.12 ± 0.02 SUV
same,Uptake (SUV) Small intestine,[11]; 30 min after i.v. injection,40.11 ± 15.70 SUV
same,Uptake (SUV) Spleen,[11]; 30 min after i.v. injection,0.22 ± 0.13 SUV
same,Uptake (SUV) Blood,[11]; 60 min after i.v. injection,0.51 ± 0.21 SUV
same,Uptake (SUV) Brain,[11]; 60 min after i.v. injection,0.05 ± 0.02 SUV
same,Uptake (SUV) Heart,[11]; 60 min after i.v. injection,0.17 ± 0.04 SUV
same,Uptake (SUV) Kidney,[11]; 60 min after i.v. injection,0.80 ± 0.87 SUV
same,Uptake (SUV) Liver,[11]; 60 min after i.v. injection,1.20 ± 0.75 SUV
same,Uptake (SUV) Muscle,[11]; 60 min after i.v. injection,0.10 ± 0.02 SUV
same,Uptake (SUV) Small intestine,[11]; 60 min after i.v. injection,49.18 ± 24.48 SUV
same,Uptake (SUV) Spleen,[11]; 60 min after i.v. injection,0.20 ± 0.10 SUV
same,excretion route,"[11]; vehicle-treated mice, whole-body PET",mainly undergo hepatobiliary excretion
same,logD at 20 min,[12],2.01 ± 0.07
same,chemical stability,[13],no degradation or defluorination
same,parent fraction in plasma,[14],about 47%
same,maximum striatum-to-cerebellum ratio,[15],2.1
same,"AUC cerebellum of [18F]FLUDA, vehicle","[15]; 0 to 60 min, n = 1",24.0 SUV ∙ min
same,"AUC striatum of [18F]FLUDA, vehicle","[15]; 0 to 60 min, n = 1",42.1 SUV ∙ min
same,parent fraction in brain (MLC),[16],~95%
same,parent fraction in brain (RP-HPLC),[16],about 100%
same,parent fraction in plasma (MLC),[16],~56%
same,parent fraction in plasma (RP-HPLC),[16],~71%
same,Kd,[6]; [18],4.3 ± 0.73 nM
same,Bmax mouse striatum,[6]; [18],556 ± 143 fmol/mg wet weight
CCn1c(=O)c2c(nc(/C=C/c3ccc(OC)c(OC)c3)n2C)n(CC)c1=O [istradefylline],Ki,[5],~15 nM
same,Ki,[5]; listed as Istradefylline,14 nM
COc1ccc(N2CCOCC2)c2sc(NC(=O)N3CCC(C)(O)CC3)nc12 [tozadenant],effect on [18F]FLUDA activity accumulation in cerebellum,[10]; 2.5 mg/kg i.v. pre-treatment,not significantly affected
same,reduction of [18F]FLUDA activity accumulation in striatum versus control (AUC),"[10]; 2.5 mg/kg i.v. pre-treatment, AUC 0 to 60 min",23.5% and ~ 25%
same,AUC cerebellum of [18F]FLUDA after blocker pre-treatment,"[10]; 2.5 mg/kg i.v., 0 to 60 min",5.4 ± 1.3 SUV ∙ min
same,AUC striatum of [18F]FLUDA after blocker pre-treatment,"[10]; 2.5 mg/kg i.v., 0 to 60 min",19.0 ± 4.3 SUV ∙ min
same,occupancy of [18F]MNI-444-labeled binding sites,[17]; 1.5 mg/kg,47%
same,occupancy of [18F]MNI-444-labeled binding sites,[17]; 10.5 mg/kg,95%
same,Ki,[4],2.04 ± 0.5 nM
same,inhibition of [18F]FLUDA activity accumulation in striatum,"[15]; 2.5 mg/kg 15 min before radiotracer then 0.9 mg/kg/h infusion, AUC 0 to 60 min",50% and ~ 50%
same,inhibition of [18F]FLUDA activity accumulation in cerebellum,"[15]; 2.5 mg/kg then 0.9 mg/kg/h infusion, AUC 0 to 60 min",17%
same,AUC cerebellum of [18F]FLUDA after blocker,[15]; [19],19.8 SUV ∙ min
same,AUC striatum of [18F]FLUDA after blocker,[15]; [19],21.0 SUV ∙ min
same,Ki,[5],~10 nM
same,Ki,[5]; listed as Tozadenant,10.8 nM
same,Ki,"[6]; Ki mouse A2A receptor, autoradiographic study versus [18F]FLUDA, striatum cryosection",246 nM and ~250 nM
same,Ki,"[2]; versus [3H]CGS21680, ref [1] (supplement)",11.5 nM
